What was measured:
Type in all cases: cell-based
HL-60 or Jurkat [1] = test: Protease release substrate selectivity, lysed (freeze fractured, sonicated, or detergent) cells; parameters: key: None denotes no statistical activity above control population.; (+) to (+++++) denotes the range of activity above control population from modest to robust; (+) to (+++++) denotes the range of activity above control population from modest to robust; (+) to (+++++) denotes the range of activity above control population from modest to robust; (+) to (+++++) denotes the range of activity above control population from modest to robust; (+) to (+++++) denotes the range of activity above control population from modest to robust; details: substrate cleavage activity above control in lysed cells; 15-30 minutes at 37° C.
Source text: (§1) Ala-Ala-Phe-AMC was obtained from Promega. Z-Leu-Leu-Val-Tyr-aminoluciferin (LLVY corresponds to SEQ ID NO:18), Z-Leu-Arg-aminoluciferin, Z-Phe-Arg-aminoluciferin, Ala-Ala-Phe-aminoluciferin, (Ala-Ala-Phe)2-R110, and (Gly-Phe)2-R110 were synthesized by Promega Biosciences. Suc-Ala-Ala-Phe-AMC, H-Phe-AMC, H-Tyr-AMC, Glutyl-Ala-Ala-Phe-AMC (EMF corresponds to SEQ ID NO:32), H-Gly-Phe-AMC, Z-Gly-Ala-Met-AMC, Suc-Leu-Leu-Val-Tyr-AMC (LLVY corresponds to SEQ ID NO:18), D-Ala-Leu-Lys-AMC, H-Gly-Ala-AMC, H-Gly-Gly-AMC, Suc-Ala-Ala-Phe-AMC, Z-Arg-Leu-Arg-Gly-Gly-AMC (RLRGG corresponds to SEQ ID NO:29), Z-Leu-Arg-Gly-Gly-AMC (LRGG corresponds to SEQ ID NO:30) and Ac-Ala-Ala-Tyr-AMC were sourced from Bachem. Gly-Phe-AFC, Pro-Phe-Arg-AMC, Gly-Gly-Leu-AMC, and Ser-Tyr-AFC were obtained from Calbiochem. Z-Phe-Arg-AMC and Suc-Arg-Pro-Phe-His-Leu-Leu-Val-Tyr-AMC (RPHLLVY corresponds to SEQ ID NO:31) were purchased from Sigma.
(§2) All substrates were solubilized in DMSO from 10 to 100 mM depending upon inherent solubility. Fluorescent substrates were diluted to 100 μM to 1 mM in 10 mM Hepes, pH 7.5 or matched cell culture medium with 10% serum and added in 1/10th volumes to lysed (freeze fractured, sonicated, or detergent) or untreated viable cells in white-walled, clear bottomed 96-well plates. HL-60 or Jurkat were used in the experimentation interchangeably because of their easily manipulated suspension phenotype. Plates were incubated for 15-30 minutes at 37° C. prior to measuring fluorescence by the CYTOFLUOR® II.
(§3) Luminescent substrates were added to a luciferin detection cake (Promega V859A) resuspended in 2 ml 10 mM Hepes, pH 7.5 to 500 μM. ⅕^th volume of the proluminescent reaction mixes were added to lysed (freeze fractured, sonicated, or detergent) or untreated viable cells in white-walled, clear bottomed 96-well plates. Again, HL-60 or Jurkat were used in the experimentation interchangeably. Plates were incubated at 37° C. in a MeCour' circulating heat block controlled by a Caron 2050W exchange unit. Luminescence was measured between 15 and 30 minutes (signal steady state).
(§4) A broad variety of proteolytic substrates were examined in an effort to characterize potential substrate preferences for protease release or retention in compromised or viable cells (see Table 4). […] Non-blocked substrates (H- and the like) were examined to include the contribution of aminopeptidase activities. From this panel, at least three proteolytic profiles emerged: an aminopeptidase-like activity preferring unblocked Ala-Ala-Phe tripeptide, a proteosomal (chymotrypsin-like) activity measured by release of blocked Leu-Leu-Val-Tyr (SEQ ID NO:18) peptides, and an exceedingly labile activity by Gly-Phe, Gly-Ala, Phe-, Tyr- or Gly-Gly-Leu substrates. The latter activities were only measurable in viable, intact cells. Of further significance is that several fluorophores or proluminescent labels can be used to detect these activities, ultimately allowing for enhanced downstream multiplexing flexibility.

HL-60 or Jurkat [2] = test: Protease retention substrate selectivity, untreated viable cells; parameters: key: None denotes no statistical activity above control population.; (+) to (+++++) denotes the range of activity above control population from modest to robust; (+) to (+++++) denotes the range of activity above control population from modest to robust; (+) to (+++++) denotes the range of activity above control population from modest to robust; (+) to (+++++) denotes the range of activity above control population from modest to robust; (+) to (+++++) denotes the range of activity above control population from modest to robust; details: substrate cleavage activity above control in untreated viable cells; 15-30 minutes at 37° C.
Source text: as §1, §2, §3, §4

Jurkat cells = test: Protease retention assay formats with different peptide sequences and reporters; details: viable versus lysed cells
Description: Actively doubling Jurkat cells were serially diluted from 37,500 cells/well in RPMI 1640+10% FBS in a white-walled, clear bottomed 96 well plate in 100 μl volumes. The cells in half of the plate were lysed with the addition of Triton X to 0.2% final. The other half of the plate wells received a matched volume (5 μl) of water vehicle. Tyr-AMC, Phe-AMC and Gly-Phe-AFC were all rehydrated in DMSO to 100 mM then diluted in RPMI 1640 to 1 mM. 1/10th volume of diluted substrates were added to the wells, mixed briefly by orbital shaking then incubated at 37° C. in 5% CO2 for up to 1.5 hours. Resulting fluorescence was measured at Ex. 360 Em. 460 and Ex. 405 and Em. 500 at 30 and 90 minutes.

ACHN cells = test: Live cell protease retention multiplexed with caspase 3/7 activity, ACHN; details: serial dilutions, 5 hours
Description: (§5) SK-MEL-28 or ACHN cells were seeded into white-walled, clear bottomed 96 well plates at a density of 10,000 cells per well in 100 μl volumes and allowed to attach at 37° C. in 5% CO2 for a period of 2 hours. After attachment, 50 μl of medium was carefully removed and replaced with serial dilutions of either ionomycin or staurosporine in MEM+10% FBS. Medium only served as control. The plate was incubated for an additional 5 hours. A 1 mM solution of Gly-Phe-AFC was made in MEM and added to the wells in a 1/10th volume. Resulting fluorescence was measured using a CYTOFLUOR® II. Caspase-GIo™ 3/7 reagent was then added and luminescence measure using a BMG FLUOstar Optima.

SK-MEL-28 cells = test: Live cell protease retention multiplexed with caspase 3/7 activity, SK-MEL-28; details: SK-MEL-28, serial dilutions, 5 hours
Description: as §5

Row | Compound | Release (HL-60 or Jurkat [1]) | Retention (HL-60 or Jurkat [2]) | Suitability as live cell protease retention substrate (Jurkat cells) | Cytotoxicity profile (live cell fluorescence and caspase 3/7 activity) (ACHN cells) | Cytotoxicity profile (live cell fluorescence and caspase 3/7 activity) (SK-MEL-28 cells)
1 | NCC(=O)N[C@@H](Cc1ccccc1)C(=O)Nc1ccc2c(c1)Oc1cc(NC(=O)[C@H](Cc3ccccc3)NC(=O)CN)ccc1C21OC(=O)c2ccccc21 [(Gly-Phe)2 R110, (Gly-Phe)2-R110] | None | None | apparently unable to effectively traverse the cell membrane or was not effectively cleaved by the candidate protease | – | –
2 | CN[C@@H]1C[C@H]2O[C@@](C)([C@@H]1OC)n1c3ccccc3c3c4c(c5c6ccccc6n2c5c31)C(=O)NC4 [staurosporine] | – | – | – | apoptotic profile | caspase activation (and therefore apoptosis induction) is evident
